Laboratory results: US9247745B2, “Substituted pyridazines for controlling invertebrate pests” (BASF SE, priority 2010, dated 2016)

How the values were obtained:
Type in all cases: in vivo
[1] = system: Vetch aphid (Megoura viciae); test: Vetch aphid (Megoura viciae) bean leaf disk microtiter plate test; details: foliar, 144 h, test solution 2500 mg/L, bean leaf disks, 6 days
Experimental: II.4 Vetch Aphid (Megoura viciae)
The active compounds were formulated in 1:3 (vol:vol) DMSO:water with different concentrations of formulated compounds.
Bean leaf disks were placed into microtiterplates filled with 0.8% agar-agar and 2.5 ppm OPUS™. The leaf disks were sprayed with 2.5 μl of the test solution and 5 to 8 adult aphids were placed into the microtiterplates which were then closed and kept at 23±1° C. and 50±5% relative humidity under fluorescent light for 6 days. Mortality was assessed on the basis of vital, reproduced aphids. Aphid mortality and fecundity was then visually assessed.

[2] = system: Green peach aphid (Myzus persicae, mixed life stages); test: Green peach aphid (Myzus persicae, mixed life stages) foliar spray on infested bell pepper plants; details: 120 h, after 5 days, read-out: mortality in comparison with untreated controls
Experimental: II.2 Green Peach Aphid (Myzus persicae, Mixed Life Stages)
(§1) The active compounds were formulated in cyclohexanone as a 10,000 ppm solution supplied in 1.3 ml ABgene® tubes. These tubes were inserted into an automated electrostatic sprayer equipped with an atomizing nozzle and they served as stock solutions for which lower dilutions were made in 50% acetone:50% water (v/v). A nonionic surfactant (Kinetic®) was included in the solution at a volume of 0.01% (v/v).
Bell pepper plants at the first true-leaf stage were infested prior to treatment by placing heavily infested leaves from the main colony on top of the treatment plants. Aphids were allowed to transfer overnight to accomplish an infestation of 30-50 aphids per plant and the host leaves were removed. The infested plants were then sprayed by an automated electrostatic plant sprayer equipped with an atomizing spray nozzle. The plants were dried in the sprayer fume hood, removed, and then maintained in a growth room under fluorescent lighting in a 24-hr photoperiod at 25° C. and 20-40% relative humidity. Aphid mortality on the treated plants, relative to mortality on untreated control plants, was determined after 5 days.

[3] = system: Silverleaf whitefly (Bemisia argentifolii, adult); test: Silverleaf whitefly (Bemisia argentifolii, adult) on sprayed cotton plants; details: 72 h, spray on cotton plants, 3 days after treatment, read-out: mortality in comparison with untreated controls
Experimental: II.7 Silverleaf Whitefly (Bemisia argentifolii, Adult)
as §1
Cotton plants at the cotyledon stage (one plant per pot) were sprayed by an automated electrostatic plant sprayer equipped with an atomizing spray nozzle. The plants were dried in the sprayer fume hood and then removed from the sprayer. Each pot was placed into a plastic cup and 10 to 12 whitefly adults (approximately 3-5 days old) were introduced. The insects were collected using an aspirator and 0.6 cm, nontoxic Tygon® tubing (R-3603) connected to a barrier pipette tip. The tip, containing the collected insects, was then gently inserted into the soil containing the treated plant, allowing insects to crawl out of the tip to reach the foliage for feeding. Cups were covered with a reusable screened lid (150-micron mesh polyester screen PeCap from Tetko, Inc.). […] Mortality was assessed 3 days after treatment, compared to untreated control plants.

[4] = system: Cowpea aphid (Aphis craccivora); test: Cowpea aphid (Aphis craccivora) spray on potted cowpea plants; details: assessed after 24, 72, and 120 hours, read-out: mortality in comparison with untreated controls
Experimental: II.3 Cowpea Aphid (Aphis craccivora)
The active compounds were formulated in 50:50 (vol:vol) acetone:water. The test solution was prepared at the day of use.
Potted cowpea plants colonized with 100-150 aphids of various stages were sprayed after the pest population had been recorded. Population reduction was assessed after 24, 72, and 120 hours.

[5] = system: Cotton aphid (Aphis gossypii, mixed life stages); test: Cotton aphid (Aphis gossypii, mixed life stages) foliar spray on infested cotton plants; details: 120 h, after 5 days, read-out: mortality in comparison with untreated controls
Experimental: II.1 Cotton Aphid (Aphis gossypii, Mixed Life Stages)
as §1
Cotton plants at the cotyledon stage were infested with aphids prior to treatment by placing a heavily infested leaf from the main aphid colony on top of each cotyledon. Aphids were allowed to transfer overnight to accomplish an infestation of 80-100 aphids per plant and the host leaf was removed. The infested plants were then sprayed by an automated electrostatic plant sprayer equipped with an atomizing spray nozzle. The plants were dried in the sprayer fume hood, removed from the sprayer, and then maintained in a growth room under fluorescent lighting in a 24-hr photoperiod at 25° C. and 20-40% relative humidity. Aphid mortality on the treated plants, relative to mortality on untreated control plants, was determined after 5 days.

[6] = system: green peach aphid (Myzus persicae); test: Green peach aphid (Myzus persicae) systemic test, artificial diet under membrane; details: 72 h, 2500 ppm in aphid diet, 3 days, read-out: mortality in comparison with untreated controls
Excerpt: II.6 Activity Against Green Peach Aphid (Myzus persicae)
For evaluating control of green peach aphid (Myzus persicae) through systemic means the test unit consisted of 96-well-microtiter plates containing liquid artificial diet under an artificial membrane.
The compounds were formulated using a solution containing 75% v/v water and 25% v/v DMSO. Different concentrations of formulated compounds were pipetted into the aphid diet, using a custom built pipetter, at two replications. After application, 5 to 8 adult aphids were placed on the artificial membrane inside the microtiter plate wells. The aphids were then allowed to suck on the treated aphid diet and incubated at about 23+1° C. and about 50+5% relative humidity for 3 days. Aphid mortality and fecundity was then visually assessed.

Cc1c(C(=O)/N=c2\ccn(C)nc2)cnn1CC(F)(F)F [Compound 7, 5-methyl-1-(2,2,2-trifluoro-ethyl)-1H-pyrazole-4-carboxylic acid [1-methyl-1H-pyridazin-(4E)-ylidene]-amide]
mortality at 2500 µg/mL [1]: ≥ 90% | mortality at 300 ppm [2]: ≥ 75% | mortality at 300 ppm [3]: ≥ 75% | mortality at 300 ppm [4]: ≥ 90% | mortality at 300 ppm [5]: ≥ 75% | mortality at 2500 ppm [6]: 100%
